As usually defined, the IC50 is the concentration that inhibits the measured activity by half. High values mean weaker potency, low ones greater potency.

We go through eleven compounds from US10881712B2, “Neuroprotective agents derived from spider venom peptides” (THE UNIVERSITY OF QUEENSLAND, priority 2015, dated 2021).

“Also recorded” adds a separate entry of the source. Bridge positions count the residues as written; N and C are the ends. Ends that are not written are not given here. Peptide text beside a SMILES is read from it. Where only a bound is given, the exact number is not on record here.

For one experiment, the target named is T1, rASIC1a (Rattus norvegicus, UniProt P55926).
T1 construct: expressed in transfected cells; host or cells: Xenopus laevis oocytes injected with cRNA
T1 sequence (P55926 1-526): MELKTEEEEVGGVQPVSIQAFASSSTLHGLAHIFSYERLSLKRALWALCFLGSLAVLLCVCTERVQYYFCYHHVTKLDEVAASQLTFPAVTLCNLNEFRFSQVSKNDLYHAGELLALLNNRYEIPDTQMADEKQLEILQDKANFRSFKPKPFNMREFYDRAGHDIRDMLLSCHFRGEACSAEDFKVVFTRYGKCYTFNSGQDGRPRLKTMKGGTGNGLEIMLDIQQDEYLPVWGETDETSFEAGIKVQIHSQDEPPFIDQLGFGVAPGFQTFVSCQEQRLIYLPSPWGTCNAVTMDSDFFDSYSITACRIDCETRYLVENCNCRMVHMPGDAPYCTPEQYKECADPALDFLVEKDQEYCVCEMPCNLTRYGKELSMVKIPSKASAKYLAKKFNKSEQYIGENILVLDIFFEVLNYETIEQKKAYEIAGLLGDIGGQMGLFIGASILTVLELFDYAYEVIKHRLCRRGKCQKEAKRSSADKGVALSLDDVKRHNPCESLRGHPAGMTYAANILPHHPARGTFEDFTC
The experiment is described as follows: Two-electrode voltage clamp (TEVC) on Xenopus laevis oocytes expressing homomeric rASIC1a. The experiment is classed as cell-based. As to conditions: for Extent of inhibition of ASIC1a currents (full or incomplete): at saturating concentrations; for Reversibility of inhibition (in words) / Rapidly reversible inhibition: upon washout; for Rapidly reversible inhibition: Table 1; for % Residual Current: current remaining at saturating peptide concentrations; for Potency compared to wild-type Hi1a (in words): point mutants. On the procedure:
The ability of the peptides of the invention to modulate ASIC currents was assessed using two-electrode voltage clamp (TEVC) electrophysiology experiments performed on Xenopus laevis oocytes expressing homomeric ASIC channels. Xenopus oocytes are widely used as an expression system for functional characterisation of ion channel modulators. TEVC allows measurement of whole-cell ion channel currents while controlling the membrane potential.
Oocytes were harvested from anaesthetised female X. laevis then defolliculated by treatment with collagenase (Sigma, type I). Oocytes were injected with in vitro transcribed ASIC cRNA (capped RNA). Oocytes were kept at 17-18° C. in ND96 solution containing 96 mM NaCl, 2 mM KCl, 1.8 mM CaCl2, 2 mM MgCl2, 5 mM HEPES, 5 mM pyruvic acid, 50 μg/ml gentamicin (pH 7.4), and fetal horse serum (2.5%), and experiments were performed at room temperature (21-22° C.) 1-3 days after cRNA injection. Oocytes were clamped at −60 mV (Warner OC-725C oocyte clamp; Warner Instruments, CT, USA) using two standard glass microelectrodes of 0.5-2 MΩ resistance when filled with 3 M KCl. Data acquisition and analysis were performed using pCLAMP software, Version 10 (Axon Instruments, CA, USA). Currents were elicited by a drop in pH from 7.45 to 6.0 using a microperfusion system to allow rapid solution exchange. All experiments were performed using ND96 solution spiked with 0.1% BSA in order to minimise adsorption of peptides to plastic tubing.
On the technique in general: Two-electrode voltage clamp holds a large cell at a set potential and records current.

For experiment [1], the system named is spontaneously hypertensive rats (SHR). The experiment is described as follows: Focal reperfusion (endothelin-1) stroke model in conscious SHR, i.c.v. administration. The conditions noted are these: single i.c.v. dose two hours after stroke; Hi1a 2 ng/kg, PcTx1 and mutant 1 ng/kg; 72 h post-stroke. The experiment is classed as in vivo, rat. On the procedure: The neuroprotective efficacy of Hi1a was assessed in a rat model of focal cerebral ischemia. In vivo experiments were conducted using a focal reperfusion model of stroke in conscious spontaneously hypertensive rats (SHR) as previously reported (McCarthy et al., Neuropharmacology 99, 650-657, 2015). Two 23-gauge stainless steel guide cannulae were stereotaxically implanted into anaesthetised animals (ketamine 75 mg/kg; xylazine 10 mg/kg; intraperitoneal) 5 days prior to stroke induction. The first cannula was implanted 3 mm dorsal to the right middle cerebral artery for stroke induction. The second cannula was implanted into the left lateral ventricle for drug administration. […]
Compared to models of middle cerebral artery occlusion (MCAO) achieved by surgical exposure of the artery, this model has the advantage of minimal surgical intervention in the brain, and the stroke is induced in the absence of anaesthetics, which can confound the results of drug studies (Callaway et al., 1999; Sharkey et al., 1993). Stroke-induced motor deficit was assessed by counting the number of foot faults made while rats traversed a gradually narrowing ledged beam (McCarthy et al., Stroke 40, 1482-1489, 2009). […] For the neurological score, postural abnormalities were assessed by elevating the rat by the tail above a flat surface and grading the severity of thorax twisting and the angle of forelimb extension. […]

The test system of the next experiment is ASIC1a. As to conditions: McCarthy et al., 2015; cited from earlier work.

For the compound `CC[C@H](C)[C@@H]1NC(=O)[C@@H](NC(=O)[C@H](CCC(=O)O)NC(=O)[C@H](CC(N)=O)NC(=O)[C@@H](N)CO)CSSC[C@@H]2NC(=O)[C@@H]3CSSC[C@@H](C(=O)N[C@H](C(=O)N4CCC[C@H]4C(=O)N[C@H](C(=O)N4CCC[C@H]4C(=O)O)[C@@H](C)CC)C(C)C)NC(=O)[C@H](C(C)C)NC(=O)[C@H](CCC(=O)O)NC(=O)[C@H](Cc4ccccc4)NC(=O)[C@H](CO)NC(=O)[C@H](Cc4c[nH]cn4)NC(=O)[C@H](CCCNC(=N)N)NC(=O)[C@H](CCCNC(=N)N)NC(=O)[C@H](CCCCN)NC(=O)[C@H](Cc4ccc(O)cc4)NC(=O)[C@H](CSSC[C@H](NC(=O)[C@H](CO)NC(=O)[C@H](CC(C)C)NC(=O)[C@H](Cc4c[nH]c5ccccc45)NC(=O)[C@H](CCCCN)NC(=O)[C@H](CCCNC(=N)N)NC1=O)C(=O)N[C@@H](C(C)C)C(=O)N[C@@H](CC(=O)O)C(=O)N[C@@H](CCCNC(=N)N)C(=O)N[C@@H](CCCCN)C(=O)N[C@@H](CC(N)=O)C(=O)N[C@@H](CC(=O)O)C(=O)N3)NC(=O)[C@H](CCC(=O)O)NC(=O)[C@H](CC(C)C)NC(=O)CNC(=O)[C@H](CCC(=O)O)NC2=O` [Hi1a_N] (H-SNECIRKWLSCVDRKNDCCEGLECYKRRHSFEVCVPIP-OH; disulfide 4-19, 11-24, 18-34), at rASIC1a, the “Fold lower potency than PcTx1 or full-length Hi1a” value was approximately 1000 fold, the “Extent of inhibition of ASIC1a currents (full or incomplete)” value (from here on “Extent of inhibition of ASIC1a currents”) is “fully inhibit” and the “Reversibility of inhibition (in words)” value is listed as “fully reversible”.
Take “Hi1a_C: C-terminal ICK domain of Hi1a expressed separately in E. coli, SEQ ID NO:21 (IPGFCLVKWKQCDGRERDCCAGLECWKRSGNKSSVCAPIT; listed as Hadronyche infensa)”: in the experiment with rASIC1a (at 1 μM), the Effect on current result is on record as “minor potentiation”. Besides, the Inhibition entry with rASIC1a (at 10 μM) is “negligible inhibition”. Besides, the Inhibitory effect result in the experiment with rASIC1a (up to 30 μM) is reported as “no observed inhibitory effect”.
For the compound “PcTx1 mutant iso 2: Double-mutant PcTx1 analogue (R27A/V32A) that is inactive against ASIC1a (EDCIPKWKGCVNRHGDCCEGLECWKRARSFEACVPKTPKT; ends and bridges not checked; cysteine pairing not given here; UniProt P60514 1-40, looked up, variant R27A V32A)”, the “Infarct size in cortical (penumbral) and striatal (core) regions” value in experiment [1] was “completely ineffective; also recorded: no effect”. Also, in the experiment on ASIC1a, the “Activity against ASIC1a” value is “inactive”.
As for “QECIAKWKSCAGRKLDCCEGLECWKRRWGHEVCVPITQKIFCLEKWKSCFERKYDCCEELECWERRGNKHPVCAPKQ (disulfide 3-18, 10-23, 17-33, 42-57, 49-62, 56-73) [Hi1d]”, at rASIC1a, the Rapidly reversible inhibition entry is recorded as “Yes” and the “Extent of inhibition of ASIC1a currents” value is on record as “complete”.
On to “SEDCIPKWKGCVNRHGDCCEGLECWKRRRSFEVCVPKTEDCIPKWKGCVNRHGDCCEGLECWKRRRSFEVCVPKTPKT (disulfide 4-19, 11-24, 18-34, 41-56, 48-61, 55-71) [EP 1]”, for which, at rASIC1a, the “Fold increase in IC50 (decrease in potency) relative to wild-type Hi1a” value is reported as approximately 200 fold, half-maximal inhibition (IC50) required 64 nM, the Rapidly reversible inhibition entry was “No” and the “Extent of inhibition of ASIC1a currents” value is given as “full inhibition”. Further, at rASIC1a, the “% Residual Current” value is listed as 0% and the “Reversibility of inhibition (in words)” value is given as “slowly reversible”.
As to “SEDCIPKWKGCVNRHGDCCEGLECWKRRRSFEVCVPKTGDCIPKWKGCVNRHGDCCEGLECWKRRRSFEVCVPKTPKT (disulfide 4-19, 11-24, 18-34, 41-56, 48-61, 55-71) [EP 2]”, on rASIC1a, the “Fold increase in IC50 (decrease in potency) relative to wild-type Hi1a” value is given as approximately 500 fold, the IC50 turned out to be 215 nM, the Rapidly reversible inhibition result is “No” and the “Extent of inhibition of ASIC1a currents” value is reported as “full inhibition”. On rASIC1a, the “% Residual Current” value is listed as 0% and the “Reversibility of inhibition (in words)” value is “slowly reversible”.
“SEDCIPKWKGCVNRHGDCCEGLECWKRRRSFEVCVPKTPKTIPGFCLVKWKQCDGRERDCCAGLECWKRSGNKSSVCAPIT (disulfide 4-19, 11-24, 18-34, 46-61, 53-66, 60-77) [PcTx1/Hi1a_C]”: on rASIC1a, the “Fold increase in IC50 (decrease in potency) relative to wild-type Hi1a” value worked out at 3 fold, the IC50 was determined as 1.3 nM, the Rapidly reversible inhibition result is recorded as “No” and the “Extent of inhibition of ASIC1a currents” value is listed as “incomplete inhibition”. In addition, at rASIC1a, the “% Residual Current” value is listed as approximately 35% and the “Reversibility of inhibition (in words)” value is reported as “slowly reversible”.
With “SNECIRKWKSCVDRKNDCCEGLECYKRRHSFEVCVPIPGFCLVKWKQCDGRERDCCAGLECWKRSGNKSSVCAPIT (disulfide 4-19, 11-24, 18-34, 41-56, 48-61, 55-72) [Hi1a L8K]”, on rASIC1a, 0.976 nM corresponded to half-maximal inhibition (IC50), the Rapidly reversible inhibition entry is “No”, the “% Residual Current” value came out at 30% and the “Potency compared to wild-type Hi1a (in words)” value is “little effect”.
Regarding “SNECIRKWLSCVDRKNDCCEGLECWKRRHSFEVCVPIPGFCLVKWKQCDGRERDCCAGLECWKRSGNKSSVCAPIT (disulfide 4-19, 11-24, 18-34, 41-56, 48-61, 55-72) [Hi1a Y24W]”, at rASIC1a, the IC50 came to 0.537 nM, the Rapidly reversible inhibition entry was “No”, the “Extent of inhibition of ASIC1a currents” value is on record as “full inhibition” and the “% Residual Current” value came out at 0%.
For the compound “SNECIRKWLSCVDRKNDCCEGLECYKRRHSFEVCVPGGGGGGFCLVKWKQCDGRERDCCAGLECWKRSGNKSSVCAPIT (disulfide 4-19, 11-24, 18-34, 44-59, 51-64, 58-75) [EP 3]”, at rASIC1a, the IC50 is more than 4 nM and the “% Residual Current” value turned out to be 80%. Besides, the “Inhibition of rASIC1a currents” value on rASIC1a (applied at up to 1 μM) is on record as not above 20%.
Turning to “SNECIRKWLSCVDRKNDCCEGLECYKRRRSFEVCVPIPGFCLVKWKQCDGRERDCCAGLECWKRSGNKSSVCAPIT (disulfide 4-19, 11-24, 18-34, 41-56, 48-61, 55-72) [Hi1a H28R]”, on rASIC1a, the IC50 was determined as 0.115 nM, the Rapidly reversible inhibition result is on record as “No”, the “% Residual Current” value was determined as 20% and the “Potency compared to wild-type Hi1a (in words)” value is listed as “slightly increased potency”.
